Earlier results as cited in patent publication US12357627B2, “Pharmaceutical compositions of cabozantinib” (AZURITY PHARMACEUTICALS, INC., priority 2021, dated 2025).
Converted amounts (≈) assume the structure as drawn. Like-named read-outs stand apart in the source and are kept apart here.

Columns and labels:
[1] = mass balance study
[2] = high-fat meal relative to fasted conditions, healthy subjects, single oral dose

COc1cc2nccc(Oc3ccc(NC(=O)C4(C(=O)Nc5ccc(F)cc5)CC4)cc3)c2cc1OC [Cabozantinib]
solubility (at pH>4): practically insoluble | solubility (in 0.01N HCl): 0.11 mg/mL (≈ 219 µM) | solubility (in water): practically insoluble | administered cabozantinib renally excreted [1]: at least 27% | increase of AUC [2]: 57% | increase of Cmax [2]: 41%
